This is an account of results in ChEMBL document CHEMBL1926511, “Novel amino-piperidines as potent antibacterials targeting bacterial type IIA topoisomerases” (Bioorg Med Chem Lett, 2011).

≈ marks a conversion by molar mass, not a printed value. Calls of active or inactive are those of the source. No cut-off for these calls is given here.

Usually IC50 stands for the concentration that inhibits the measured activity by half. Broadly, the logD is lipophilicity at a set pH, counting ionised and neutral species.

Target in the first data set: not listed separately
Description: Inhibition of Haemophilus influenzae DNA gyrase-dependent DNA replication by scintillation proximity assay.
Details: not given
In general terms: Scintillation proximity formats need no separation of bound from free tracer.
`COc1ccc2ncc(F)c(CCN3CC[C@H](NCc4cc5c(cn4)OCCO5)[C@H](O)C3)c2n1` returned an IC50 of 0.072 µg/mL (≈ 0.153 µM).
Same read-out and setting: to `COc1ccc2ncc(F)c([C@H](O)CN3CCC(NCc4cc5c(cn4)OCCO5)CC3)c2n1` belongs 0.098 µg/mL (≈ 0.209 µM).

The next data set has as its system Haemophilus influenzae. The experiment in a line: Antibacterial activity against Haemophilus influenzae H128 after 18 to 24 hrs by broth microdilution method. Type of data set: functional.
Details: not given
In general terms: Broth dilution looks for growth in wells or tubes with falling amounts of substance.
For the compound `COc1ccc2ncc(F)c(CCN3CC[C@H](NCc4cc5c(cn4)OCCO5)[C@H](O)C3)c2n1`, the MIC came to 0.5 µg/mL (≈ 1.06 µM).
Still for that read-out and setting: the same measure for `COc1ccc2ncc(F)c([C@H](O)CN3CCC(NCc4cc5c(cn4)OCCO5)CC3)c2n1`: 1 µg/mL (≈ 2.13 µM).

For a further data set, the system named is Staphylococcus aureus. The experiment in a line: Antibacterial activity against Staphylococcus aureus WCUH 29 after 18 to 24 hrs by broth microdilution method. Type of data set: functional.
Details: not given
As to `COc1ccc2ncc(F)c(CCN3CC[C@H](NCc4cc5c(cn4)OCCO5)[C@H](O)C3)c2n1`, the MIC was 0.03 µg/mL (≈ 0.0639 µM).
Same read-out and setting: the same measure for `COc1ccc2ncc(F)c([C@H](O)CN3CCC(NCc4cc5c(cn4)OCCO5)CC3)c2n1`: 0.06 µg/mL (≈ 0.128 µM).

Another data set deals with Streptococcus pneumoniae. The experiment in a line: Antibacterial activity against Streptococcus pneumoniae 1629 after 18 to 24 hrs by broth microdilution method. Type of data set: functional.
Details: not given
As for `COc1ccc2ncc(F)c(CCN3CC[C@H](NCc4cc5c(cn4)OCCO5)[C@H](O)C3)c2n1`, the MIC worked out at 0.06 µg/mL (≈ 0.128 µM).
On the same count and under the same terms, the same measure for `COc1ccc2ncc(F)c([C@H](O)CN3CCC(NCc4cc5c(cn4)OCCO5)CC3)c2n1`: 0.125 µg/mL (≈ 0.266 µM).

In the next data set the target is Voltage-gated inwardly rectifying potassium channel KCNH2 (Homo sapiens, UniProt Q12809). Description: Displacement of [3H]dofetilide from human ERG by liquid scintillation counting.
Sequence of Voltage-gated inwardly rectifying potassium channel KCNH2 (Q12809 whole entry): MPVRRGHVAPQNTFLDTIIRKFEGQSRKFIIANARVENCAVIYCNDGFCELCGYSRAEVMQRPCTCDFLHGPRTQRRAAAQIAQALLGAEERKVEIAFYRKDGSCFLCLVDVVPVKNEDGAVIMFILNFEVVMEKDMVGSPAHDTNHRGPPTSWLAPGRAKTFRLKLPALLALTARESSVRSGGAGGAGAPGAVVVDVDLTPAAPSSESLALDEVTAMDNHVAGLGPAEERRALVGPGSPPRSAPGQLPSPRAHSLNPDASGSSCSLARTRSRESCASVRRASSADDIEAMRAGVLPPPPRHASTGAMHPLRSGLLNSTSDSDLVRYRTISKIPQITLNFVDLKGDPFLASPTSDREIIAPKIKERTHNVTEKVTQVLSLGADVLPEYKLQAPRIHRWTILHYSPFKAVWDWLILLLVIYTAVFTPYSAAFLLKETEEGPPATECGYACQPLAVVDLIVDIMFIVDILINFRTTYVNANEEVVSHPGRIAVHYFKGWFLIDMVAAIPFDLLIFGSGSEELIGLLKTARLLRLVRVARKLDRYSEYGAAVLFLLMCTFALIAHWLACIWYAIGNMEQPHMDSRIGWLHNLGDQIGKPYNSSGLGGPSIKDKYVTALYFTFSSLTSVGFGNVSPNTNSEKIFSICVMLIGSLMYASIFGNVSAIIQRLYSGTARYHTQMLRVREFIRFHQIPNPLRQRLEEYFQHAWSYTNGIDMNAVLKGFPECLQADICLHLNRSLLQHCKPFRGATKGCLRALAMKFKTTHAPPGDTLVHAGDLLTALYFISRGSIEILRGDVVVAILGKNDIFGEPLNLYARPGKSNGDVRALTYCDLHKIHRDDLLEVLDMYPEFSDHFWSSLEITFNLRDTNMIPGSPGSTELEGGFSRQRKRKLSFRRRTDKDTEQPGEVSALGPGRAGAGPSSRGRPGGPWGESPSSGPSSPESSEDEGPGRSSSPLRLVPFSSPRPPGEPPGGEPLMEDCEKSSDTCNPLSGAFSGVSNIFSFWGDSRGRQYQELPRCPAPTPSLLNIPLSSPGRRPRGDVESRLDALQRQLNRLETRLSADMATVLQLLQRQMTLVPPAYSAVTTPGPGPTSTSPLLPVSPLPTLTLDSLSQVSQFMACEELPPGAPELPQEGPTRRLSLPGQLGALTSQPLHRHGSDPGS
Details: not given
`COc1ccc2ncc(F)c([C@H](O)CN3CCC(NCc4cc5c(cn4)OCCO5)CC3)c2n1` registered an IC50 of 63.1 µM.

Tested on in the next data set: not listed separately
Description: Distribution coefficient, log D of the compound at pH 7.4. Type of data set: physicochemical. To be noted: octanol/water.
`COc1ccc2ncc(F)c(CCN3CC[C@H](NCc4cc5c(cn4)OCCO5)[C@H](O)C3)c2n1`: the logD is 1.52.

For another data set, the system named is Streptococcus pneumoniae. Description: Antibacterial activity against Streptococcus pneumoniae 1629 infected in rat respiratory tract infection model assessed as log reduction in bacterial burden at 50 mg/kg, po after 1 hr post infection relative to non-treated control. Type of data set: functional.
Details: not given
With `COc1ccc2ncc(F)c(CCN3CC[C@H](NCc4cc5c(cn4)OCCO5)[C@H](O)C3)c2n1`, the log10cfu is reported as 2.

The subject of a further data set is Streptococcus pneumoniae. Description: Antibacterial activity against Streptococcus pneumoniae 1629 infected in rat respiratory tract infection model assessed as log reduction in bacterial burden at 50 mg/kg, po after 48 hrs post infection relative to non-treated control. Type of data set: functional.
Details: not given
On to `COc1ccc2ncc(F)c(CCN3CC[C@H](NCc4cc5c(cn4)OCCO5)[C@H](O)C3)c2n1`, for which the log10cfu result is recorded as “>=4”.

A further data set concerns Streptococcus pneumoniae. Description: Antibacterial activity against Streptococcus pneumoniae 1629 infected in rat respiratory tract infection model assessed as complete eradication of bacterial burden at 50 mg/kg, po after 31 hrs post infection. Type of data set: functional, organism-based. Also noted: dose 50 mg/kg.
Details: not given
Take `COc1ccc2ncc(F)c(CCN3CC[C@H](NCc4cc5c(cn4)OCCO5)[C@H](O)C3)c2n1`: the outcome was Active.
